Experimental data from patent publication US9155752B2, “Liver function-improving agent” (UENO FINE CHEMICALS INDUSTRY, LTD., priority 2012, dated 2015).

Legend:
[1] = test system: C57BL/6 male mice fed high fat diet; test: Blood ketone bodies value after 8-week feeding (Test Example 1); format: in vivo; parameters: key to Blood ketone bodies value, Significant difference: *: a significant difference was observed at 1% level of significance relative to group 3; details: for Blood ketone bodies value (Mean ± Standard error): 8 weeks
Excerpt: (§1) Eight-week-old C57BL/6 male mice (CLEA Japan, Inc.) were divided at random into groups (each group: four animals) and then used. As a normal diet, solid diet MF (lipid component 5.3%, manufactured by Oriental Yeast Co., Ltd.) was used. As a high-fat diet, solid diet High Fat Diet 32 (lipid component 32.0%, manufactured by CLEA Japan, Inc.) was used. As a sample water, 2.5% by weight of aqueous sucrose solution, 2.25% by weight of aqueous maltitol solution, and 4.5% by weight of aqueous maltitol solution obtained by respectively dissolving, as a test substance, sucrose (manufactured by Wako Pure Chemical Industries, Ltd.) and maltitol (Whole Crystalline Maltitol Ueno 60M, having maltitol purity of 90%, manufactured by Ueno Fine Chemicals Industry, Ltd.) in distilled water were used. Distilled water was used as a negative sample. The sample water was administered by making it available ad libitum and the amount of sample water intake was recorded. The dose of sucrose per day calculated from the concentration of the sample water and the water intake was 3 g per 1 kg of body weight. The dose of maltitol per day calculated in the same manner as above was 2.7 g per 1 kg of body weight in mice receiving 2.25% aqueous maltitol solution, and 4.5 g per 1 kg of body weight in mice receiving 4.5% aqueous maltitol solution. The diet and the sample water (test substance aqueous solution or distilled water) listed in Table 1 were administered to mice in each group, and the animals were fed for 8 weeks. After 8-week test feeding, pentobarbital of 0.5 mg/10 g of body weight was intraperitoneally administered to mice, and blood was collected from the tail vein under deep anesthesia. Further, by using Precision Xceed β-Ketone Measuring Electrode (manufactured by Abbott Japan Co., Ltd.), ketone bodies value in blood, which is an indicator of fat burning in the liver, was measured. A significant difference test by the t-test method was performed on blood AST values, blood ALT values, and blood ketone bodies values were evaluated by performing significant difference tests on these values via t-test.

[2] = test system: C57BL/6 male mice fed high fat diet; test: Blood AST value and blood ALT value after 8-week feeding (Test Example 1); format: in vivo; parameters: key to Blood ALT value, Significant difference: *: a significant difference was observed at 1% level of significance relative to group 3
Excerpt: as §1, with “anesthesia. With respect to the serum from the collected blood sample of mice, blood AST” for “anesthesia. Further, by using Precision Xceed β-Ketone Measuring Electrode (manufactured by Abbott Japan Co., Ltd.), ketone bodies”, “value and blood ALT value” for “value in blood,”, “which are each” for “which is”, “of liver function were measured using a Transaminase C-II Test Wako Kit (Wako Pure Chemical Industries, Ltd.).” for “of fat burning in the liver, was measured.”

[3] = Group 4: high fat diet + 2.25% aqueous maltitol solution ad libitum, 8 weeks (2.7 g/kg/day)
[4] = Group 5: high fat diet + 4.5% aqueous maltitol solution ad libitum, 8 weeks (4.5 g/kg/day)
[5] = Group 3: high fat diet + 2.5% aqueous sucrose solution ad libitum, 8 weeks (3 g/kg/day)

| Structure (SMILES) | Blood ketone bodies value, change in words ([1]; Group 4 (2.25% aqueous maltitol solution) in comparison with group 3 (sucrose)) | Blood ketone bodies value, Significant difference ([1]; Group 4 (2.25% aqueous maltitol solution) relative to group 3 (sucrose), t-test) | Blood ketone bodies value (Mean ± Standard error) ([1]; Group 4: high fat diet + 2.25% aqueous maltitol solution) | Blood ketone bodies value, change in words ([1]; Group 5 (4.5% aqueous maltitol solution) relative to group 3 (sucrose)) | Blood ketone bodies value (Mean ± Standard error) ([1]; Group 5: high fat diet + 4.5% aqueous maltitol solution) | Blood AST value, change in words ([2]; Group 4 (2.25% aqueous maltitol solution) relative to group 3 (sucrose)) | Blood ALT value (Mean ± Standard error) [2, 3] | Blood AST value (Mean ± Standard error) [2, 3] | Blood ALT value, change in words ([2]; Group 5 (4.5% aqueous maltitol solution) compared to group 3 (sucrose)) | Blood AST value, change in words ([2]; Group 5 (4.5% aqueous maltitol solution) compared with group 1 (normal diet + distilled water)) | Blood ALT value, Significant difference ([2]; Group 5 (4.5% aqueous maltitol solution) relative to group 3 (sucrose), t-test) | Blood ALT value (Mean ± Standard error) [2, 4] | Blood AST value (Mean ± Standard error) [2, 4] | Blood ketone bodies value (Mean ± Standard error) ([1]; Group 3: high fat diet + 2.5% aqueous sucrose solution) | Blood ALT value (Mean ± Standard error) [2, 5] | Blood AST value (Mean ± Standard error) [2, 5] |
| --- | --- | --- | --- | --- | --- | --- | --- | --- | --- | --- | --- | --- | --- | --- | --- | --- |
| OC[C@@H](O)[C@@H](O[C@H]1O[C@H](CO)[C@@H](O)[C@H](O)[C@H]1O)[C@H](O)[C@@H](O)CO [maltitol] | significant improvement effect | * | 0.20 ± 0.04 mmol/L | increased | 0.18 ± 0.05 mmol/L | tendency to be decreased | 41 ± 14 IU/L | 205 ± 77 IU/L | significantly decreasing the blood ALT value | decreased to a level equivalent to that in group 1 | * | 11 ± 1 IU/L | 54 ± 3 IU/L |  |  |  |
| OC[C@H]1O[C@@](CO)(O[C@H]2O[C@H](CO)[C@@H](O)[C@H](O)[C@H]2O)[C@@H](O)[C@@H]1O [sucrose, reference compound] |  |  |  |  |  |  |  |  |  |  |  |  |  | 0.08 ± 0.03 mmol/L | 50 ± 12 IU/L | 244 ± 107 IU/L |
